Patent US9358305B2, “Targeted carriers for drug delivery across the gastrointestinal epithelium” (University of Maryland, College Park, priority 2009, dated 2016)
Ends that are not written are not given here.

Tests used:
ICAM-1 on HUVEC = assay: Leukocyte transmigration across TNF-activated HUVEC monolayer in transwell; format: cell-based, human; conditions: compared to albumin, scrambled peptide and LB2 controls
Protocol: Human endothelial cells (human umbilical vein endothelial cells (HUVECs)) were grown until formation of a continuous confluent monolayer in a transwell filter located between upper and lower chambers. The cells were then treated with tumor necrosis factor alpha to mimic inflammatory activation of endothelial cells and SDF1a was added to the lower chamber to generate a gradient to attract white blood cells, as during inflammation. Lymphocytes isolated from human peripheral blood were activated with interleukin 2 and added to the upper chamber above endothelial cells in the absence (control) or presence of ICAM-1-targeting peptides A1, B7, B8, B9, B10, or D6. Albumin or a peptide of scrambled sequence were used as negative controls which should not block inflammatory transmigration of leukocytes across endothelial cells. The anti-ICAM antibody LB2, which is known to block leukocyte adhesion to ICAM-1, was used as a positive control which should block such transmigration.
Leukocytes which transmigrated to the lower chamber below endothelial cells were counted to assess their transmigration. FIG. 9 provides a graph of the resulting leukocyte transmigration as a percentage of the control. The peptides annotated with an asterisk in FIG. 9 indicate that the peptide was effective in statistically significant blockage of leukocyte transmigration across endothelial cells.

[1] = biological target: T1, ICAM-1 on human endothelial cells (Homo sapiens, UniProt P05362); assay: Competition of binding of anti-ICAM nanocarriers to human endothelial cells by synthetic peptides; format: cell-based
T1 construct: endogenous in cells
Text: (§1) (A) ELISA measurement of the binding of 7-mer peptide expressing phage library to immobilized recombinant ICAM-1 (consisting of the two most membrane-distal Ig domains—1 and 2—of mouse ICAM-1 fused to human Fc or hFc), versus their binding to control hFc. (B) Relative specificity and (C) relative affinity of ICAM-1-targeting peptide phages, determined by ELISA from the experiment in (A). (D) Relative binding of phages expressing 7-mer peptides to native ICAM-1 expressed on the surface of HV5 mouse endothelial cells, either control or activated with TNFalpha to mimic a disease phenotype. Binding was determined by microscopy using a fluorescently-labeled antibody to the phage capsid. The line in the graph indicates the level of binding of A1 phage to 293 cells, which are voided of ICAM-1-expression. (E, F) Endocytosis (1 h, 37° C.) of phages expressing 7-mer peptides by control mouse endothelial cells (E) or mouse endothelial cells incubated in the presence of 3 mM amiloride (F) was estimated by microscopy after staining surface-located phages with a Texas red-labeled antibody to the viral capsid, following by cell permeabilization and staining of all (surface and internalized) phages using a FITC-labeled antibody to the viral capsid. (G) Binding of FITC-labeled anti-ICAM polystyrene nanocarriers to human endothelial cells was evaluated by fluorescence microscopy after incubation with cells in the absence (100% level) or presence of anti-ICAM antibody, ICAM-1-targeting synthetic peptides, or peptides with their scramble sequence (e.g., A1sc).

human ICAM-1 = assay: Binding of clone A1 phages to human ICAM-1/hFc and HUVEC
mouse ICAM-1/hFc [2] = assay: ELISA of 7-mer peptide phage clones on immobilized mouse ICAM-1/hFc vs hFc; format: binding; conditions: phage clone
Text: as §1, with “(E, F) Endocytosis (1 h, 37° C.) of phages expressing 7-mer peptides by control mouse endothelial cells (E) or mouse endothelial cells incubated in the presence of 3 mM amiloride (F) was estimated by microscopy after staining surface-located phages with a Texas red-labeled antibody to the viral capsid, following by cell permeabilization and staining of all (surface and internalized) phages using a FITC-labeled antibody to the viral capsid.” left out

mouse ICAM-1/hFc [3] = biological target: T2, mouse ICAM-1/hFc (Mus musculus, UniProt P13597); assay: as above; format: binding; conditions: phage clone
T2 construct: the two most membrane-distal Ig domains—1 and 2—of mouse ICAM-1 fused to human Fc or hFc
Text: as §1, with “(E, F) Endocytosis (1 h, 37° C.) of phages expressing 7-mer peptides by control mouse endothelial cells (E) or mouse endothelial cells incubated in the presence of 3 mM amiloride (F) was estimated by microscopy after staining surface-located phages with a Texas red-labeled antibody to the viral capsid, following by cell permeabilization and staining of all (surface and internalized) phages using a FITC-labeled antibody to the viral capsid.” left out

insulin receptor = insulin receptor (Homo sapiens, UniProt P06213); conditions: reported for other strategies; cited from earlier work

T2 sequence (P13597 28-214): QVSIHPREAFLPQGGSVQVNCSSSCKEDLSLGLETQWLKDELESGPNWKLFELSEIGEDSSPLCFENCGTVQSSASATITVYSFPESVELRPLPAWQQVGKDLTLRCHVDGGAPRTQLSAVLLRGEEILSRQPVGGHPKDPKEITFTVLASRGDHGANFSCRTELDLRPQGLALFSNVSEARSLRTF
T1 sequence (P05362 28-532): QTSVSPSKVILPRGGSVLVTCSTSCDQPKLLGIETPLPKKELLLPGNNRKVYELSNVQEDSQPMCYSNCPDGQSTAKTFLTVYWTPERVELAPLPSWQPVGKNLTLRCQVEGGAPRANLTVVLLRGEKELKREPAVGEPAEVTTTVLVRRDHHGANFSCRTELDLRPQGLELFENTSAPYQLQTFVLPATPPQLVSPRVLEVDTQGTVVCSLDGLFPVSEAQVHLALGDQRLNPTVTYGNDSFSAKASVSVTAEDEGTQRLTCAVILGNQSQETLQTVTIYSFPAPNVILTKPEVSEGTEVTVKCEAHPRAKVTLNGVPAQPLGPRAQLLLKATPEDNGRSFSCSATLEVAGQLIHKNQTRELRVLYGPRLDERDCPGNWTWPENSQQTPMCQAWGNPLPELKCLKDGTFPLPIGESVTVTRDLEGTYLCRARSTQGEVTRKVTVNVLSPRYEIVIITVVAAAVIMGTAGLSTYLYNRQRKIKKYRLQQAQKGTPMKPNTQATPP

YPASYQR [A1, YPASYQR]
Leukocyte transmigration across endothelial cells (ICAM-1 on HUVEC): inhibit leukocyte transmigration | Inhibition of binding of anti-ICAM nanocarriers to human endothelial cells [1]: ~80 % inhibition | Affinity for human ICAM-1 relative to mouse ICAM-1 (human ICAM-1): ~70 % affinity of mouse ICAM-1 | Specificity vs hFc (mouse ICAM-1/hFc [2]): ~5.1 fold | Affinity to immobilized mouse ICAM-1 over non-selected phages (mouse ICAM-1/hFc [3]): ~4.7 fold

B1: α-L-iduronidase: enzyme targeted to insulin receptor, reported brain delivery strategy (protein, UniProt P35475 28-653, looked up)
Alpha-L-iduronidase: APHLVHVDAARALWPLRRFWRSTGFCPPLPHSQADQYVLSWDQQLNLAYVGAVPHRGIKQVRTHWLLELVTTRGSTGRGLSYNFTHLDGYLDLLRENQLLPGFELMGSASGHFTDFEDKQQVFEWKDLVSSLARRYIGRYGLAHVSKWNFETWNEPDHHDFDNVSMTMQGFLNYYDACSEGLRAASPALRLGGPGDSFHTPPRSPLSWGLLRHCHDGTNFFTGEAGVRLDYISLHRKGARSSISILEQEKVVAQQIRQLFPKFADTPIYNDEADPLVGWSLPQPWRADVTYAAMVVKVIAQHQNLLLANTTSAFPYALLSNDNAFLSYHPHPFAQRTLTARFQVNNTRPPHVQLLRKPVLTAMGLLALLDEEQLWAEVSQAGTVLDSNHTVGVLASAHRPQGPADAWRAAVLIYASDDTRAHPNRSVAVTLRLRGVPPGPGLVYVTRYLDNGLCSPDGEWRRLGRPVFPTAEQFRRMRAAEDPVAAAPRPLPAGGRLTLRPALRLPSLLLVHVCARPEKPPGQVTRLRALPLTQGQLVLVWSDEHVGSKCLWTYEIQFSQDGKAYTPVSRKPSTFNLFVFSPDTGAVSGSYRVRALDYWARPGPFSDPVPYLEVPVPRGPPSPGNP
Brain accumulation, targeting to insulin receptor (insulin receptor): 0.02 % injected dose per gram (% ID/g)
